Measured values: patent publication US11578130B2, “Regulatable chimeric antigen receptor” (Novartis AG, priority 2013, dated 2023)

Assays:
[1] = system: Jurkat cells with NFAT-LUC reporter (JNL); experiment: Activation of RCAR half switches (intracellular FKBP/FRB) by RAD001, NFAT luciferase; assay type: cell-based; details: RCAR half switches with CD27, CD28, ICOS, OX40 or 41BB costimulatory domain; RAD001 50 nM
Description: Jurkat cells with NFAT-LUC reporter (JNL) were grown to the density of 0.5×10^6/ml in Jurkat cell growth media with puromycin at 0.5 μg/ml. For each transfection 2.5×10^6 cells were spin down at 100 g for 10 minutes. Two μg of DNA per construct were used per transfection. Amaxa Nucleofector solution V and supplement I was mixed and 100 μl was added into the tube with DNA construct. The mixture was then added to the cells and transferred to the electroporation cuvette. Electroporation was done under setting X-001 using Amaxa Nucleofector II Device. 0.5 ml of growth media was added immediately after electroporation and the mixture were transferred into 2 ml growth media in one well of the 6-well plate.
After one hour, RAD001 compound was delivered at 50 nM when testing RCARs with different costimulatory signaling domains (FIGS. 44A and 44B), or various concentrations: 0 nM, 0.01 nM, 0.03 nM, 0.1 nM, 0.3 nM, 1 nM, 3 nM, and 10 nM (FIGS. 45A and 45B). Tissue culture plate was coated with 5 μg/ml of anti anti-CD19 antibody or isotype control for 2 hrs, blocked with the blocking buffer (DPBS with 5% serum) for 1 hour. The transfected cells with or without RAD001 were resuspended and added to the target plate with 100 μl per well and incubated for 18 hrs. […] The samples were incubated for 5 min at 37° C. and then luminescence is measured using Envision plate reader.

[2] = system: JNL cells; experiment: Single vector CD19 RCAR constructs in JNL cells, NFAT reporter activation by dimerization molecule; assay type: cell-based; details: nM to sub-nM doses
From the text: The constructs and viral particles were made and tested essentially as described in Example 11. Viral particles were introduced into JNL cells and evaluated for activity essentially as described in Example 1 except that the target was CD19 (as opposed to EGFRviii).
Construct 143775 was introduced into cells and the affect of dimerization molecule concentration on activation evaluated essentially as described in Example 14.

## CO[C@H]1C[C@@H]2CC[C@@H](C)[C@@](O)(O2)C(=O)C(=O)N2CCCC[C@H]2C(=O)O[C@H]([C@H](C)C[C@@H]2CC[C@@H](OCCO)[C@H](OC)C2)CC(=O)[C@H](C)/C=C(\C)[C@@H](O)[C@@H](OC)C(=O)[C@H](C)C[C@H](C)/C=C/C=C/C=C/1C [RAD001, (1R,9S,12S,15R,16E,18R,19R,21R,23S,24E,26E,28E,30S,32S,35R)-1,18-dihydroxy-12-{(1R)-2-[(1S,3R,4R)-4-(2-hydroxyethoxy)-3-methoxycyclohexyl]-1-methylethyl}-19,30-dimethoxy-15,17,21,23,29,35-hexamethyl-11,36-dioxa-4-aza-tricyclo[30.3.1.04,9]hexatriaconta-16,24,26,28-tetraene-2,3,10,14,20-pentaone]
[1]
  target-dependent NFAT activity: all able to activate the target-dependent NFAT activity
[2]
  activation of RCAR (Construct 143775) over dimerization molecule concentration: effective at a broad range of concentrations
